Assay type in all cases: in vivo, mouse
The subject of assay [1] is db/db mice. Kind of assay: Histological study of adipose tissue (weights, fat cell size), db/db mice. The following applies: after 5 week-administration, 1.1 and 2.7 mg/dl in drinking water. The protocol:
5 week-old male C57BL/KsJ-db/db mice (db/db mice: body weight 19 to 25 g, Japan SLC, Inc.) were purchased and individually fed in tip cages. For the db/db mice, normal pellet diet (CE-2) was administered under free water intake and free food intake. A body weight and a food intake amount over 24 hours were measured every day from the start of feeding. On day 3 after the start of feeding, blood was taken from an orbit after 6 hour-fasting and a blood glucose level and a blood insulin concentration were measured. The db/db mice were divided into three groups (10 mice per each group) so that a body weight, a 24 hour-food intake amount, a blood glucose level, and a blood insulin concentration were equal, and defined to be a control group, a low concentration baclofen treated group, and a high concentration baclofen treated group. After division into the groups, from day 5 after the start of feeding, (±)-baclofen was dissolved in drinking water and 5 week-continuous oral administration to the baclofen treated groups was started. (±)-baclofen was dissolved in drinking water at a concentration of 1.1 mg/dl in the low concentration treated group and at a concentration of 2.7 mg/dl in the high concentration treated group. A food intake amount and a body weight were measured over time during the period of 5 week-administration of (±)-baclofen, blood was taken after the end of the 5-week administration, and the db/db mice were sacrificed by cervical luxation. Brains, epididymal white adipose tissues, subcutaneous white adipose tissues and brown adipose tissues were surgically removed. The brains and brown adipose tissues were frozen in dry ice and liquid nitrogen immediately after the removal and then preserved at −80° C. The epididymal white adipose tissues and subcutaneous white adipose tissues were measured in weights, and then fixed in 4% formaldehyde and preserved at 4° C. […]

For assay [2], the system named is DIO mice. Kind of assay: Rectal temperature, oxygen consumption and motor activity, DIO mice. How it is done:
(±)-baclofen was orally administered to db/db mice and DIO mice for 5 weeks and rectal temperatures were measured 5 weeks after the start of the administration, and oxygen consumptions and motor activity were measured by using a small animal metabolism measuring system (model MK-5000: Muromachi Kikai Co., Ltd.).

Assay [3] concerns DIO mice. Kind of assay: Food intake amount and body weight, 5 week-continuous oral administration, diet-induced obese (DIO) mice. To be noted: (±)-baclofen 5 mg/kg/day, SKF97541 0.3 mg/kg/day, 3-APPA 5 mg/kg/day. The protocol:
5 week-old male C57BL/6N mice (body weight 17 to 20 g, CLEA Japan, Inc.) were purchased and individually fed in tip cages. To the mice, normal pellet diet (CE-2) was administered under free water intake and free food intake. A body weight and a food intake amount over 24 hours were measured every day from the start of feeding. On day 3 after the start of feeding, blood was taken from an orbit after 6 hour-fasting and a blood glucose level and a blood insulin concentration were measured. The mice were divided into a control group and a baclofen treated group (10 mice per each group) so that a body weight, a 24 hour-food intake amount, a blood glucose level, and a blood insulin concentration were equal, and diet induced-obesity (DIO) was started to be induced by administration of high fat diet (High Fat Diet 32, energy fat ratio 60%, CLEA Japan, Inc.) (DIO mice). At the same time as the start of administering the high fat diet, (±)-baclofen was dissolved in drinking water and 5 week-continuous oral administration was started in a dosage of 5 mg per 1 kg of a body weight in 1 day (5 mg/kg/day). A food intake amount and a body weight were measured over time during the 5 week-administration period. (±)-baclofen (5 mg/kg/day) was orally administered also to C57BL/6N mice (lean mice) that are non-obese mice to which normal diet was administered in the same manner as described above, and a food intake amount and a body weight were measured over time.
5 week-old male C57BL/6N mice (body weight 17 to 20 g, CLEA Japan, Inc.) were purchased and individually fed in tip cages. Normal pellet diet (CE-2) was administered to the mice under free water intake and free food intake. A body weight and a food intake amount over 24 hours were measured every day from the start of feeding. On day 3 after the start of feeding, blood was taken from an orbit after 6 hour-fasting and a blood glucose level and a blood insulin concentration were measured. The mice were divided into a control group, an SKF97541 treated group and a 3-APPA treated group (10 mice per each group) so that a body weight, a 24 hour-food intake amount, a blood glucose level, and a blood insulin concentration were equal, and diet induced-obesity (DIO) was started to be induced by administration of high fat diet (High Fat Diet 32, energy fat ratio 60%, CLEA Japan, Inc.) (DIO mice). At the same time as the start of administering the high fat diet, SKF97541 (0.3 mg/kg/day) or 3-APPA (5 mg/kg/day) was dissolved in drinking water and 5 week-continuous oral administration was started. A food intake amount and a body weight were measured over time during the 5 week-administration period. SKF97541 (0.3 mg/kg/day) or 3-APPA (5 mg/kg/day) was orally administered also to C57BL/6N mice (lean mice) to which normal diet was administered in the same manner as described above, and a food intake amount and a body weight were measured over time.

The mark [4] stands for this setting: DIO mice (high fat diet), oral in drinking water 5 weeks.
The mark [5] stands for this setting: DIO mice, continued until 5 weeks.

In the case of `NCC(CC(=O)O)c1ccc(Cl)cc1` (racemic) [(±)-baclofen, (RS)-4-amino-3-(4-chlorophenyl)butanoic acid], in assay [1], the “size of a fat cell (epididymal white adipose tissue, H-E stain)” value is reported as “decreases”; the “weight of epididymal white adipose tissues” value was “Significant decreases”; the “weight of subcutaneous white adipose tissue” value was “no significant decrease”. Moreover, the oxygen consumption entry in assay [2] ((±)-baclofen oral 5 weeks) is listed as “significantly increased”. For the same compound, in assay [2] ((±)-baclofen oral, 5 weeks after start of administration), the “body temperature (rectal)” value is on record as “significantly raised”. In assay [3] (setting [4]), the body weight increase entry is on record as “significantly suppressed” and the food intake amount entry is reported as “significantly suppressed”. Moreover, in assay [3] (setting [5]), the “time after start of administration from which body weight increase suppression was significant” value came out at 1 week and the “time after start of administration from which food intake suppression was significant” value is recorded as 1 week.

The record behind these values is patent publication US20100197789A1, “ANTI-OBESITY AGENT AND USE THEREOF” (National University Corporation Nagoya University, priority 2006, published 2010).
